“And” between values parts separate entries of the source, which are not always exact repeats. Identical values can stand only once.
Experiments:
[1] = target: T1, androgen receptor LBD (Panvera) (Rattus norvegicus, UniProt P15207); assay: Androgen Receptor Filtration Binding Assay (PANVERA); conditions: [3H] R1881 tracer 0.5 nM; read-out: IC50 (nM), Androgen Receptor Binding (Panvera)
T1 construct: 5 pmol androgen receptor LBD (Panvera); purchased Panvera
T1 sequence (P15207 651-882 limits assumed): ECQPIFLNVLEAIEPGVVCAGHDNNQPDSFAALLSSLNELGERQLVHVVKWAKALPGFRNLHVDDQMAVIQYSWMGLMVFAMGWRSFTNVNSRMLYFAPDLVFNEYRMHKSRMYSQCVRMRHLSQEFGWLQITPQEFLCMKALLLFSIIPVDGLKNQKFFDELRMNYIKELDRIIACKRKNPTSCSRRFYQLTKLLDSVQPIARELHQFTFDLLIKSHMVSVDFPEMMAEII
Method: The assay was run on a 96 well plate with each well filled with a total reaction volume 150 μL, of a solution containing 5 pmol androgen receptor LBD (Panvera) or 30 μL of freshly prepared rat cytosol, 0.5 nM [^3H] […] (TED buffer contains 10 mM Tris.HCl pH 7.4, 1 mM sodium molybdate, 1.5 mM EDTA, 1 mM DTT and 10% (v/v) glycerol.)
On day one, the solution containing receptor, tracer and TED buffer was distributed into a 96 well plate. Diluted test compound or control vehicle was then added to individual wells and the plate incubated at 4° C. overnight.
On day two, to each well was then added 20 μL human γ-globulin (ICN 823102), prepared at 25 mg/ml in TE pH 8.0, and 55 μL 40% polyethylene glycol 8000 (J T Baker U222-08), prepared in TE pH 8.0. The plate was incubated at 4° C. for 60 minutes. During incubation, the harvester was rinsed with 10% PEG 8000, prepared in TE pH 8.0, and a GF/C Unifilter-96 was pre-wet with 10% PEG. The binding reaction was filtered, the retentate was washed three times with 10% PEG and dried under vacuum for a couple of minutes, then dried at 50° C. for 5 min and the plate was bottom sealed. Next, 25 μL of Microscint-20 (Packard) was added to the filter wells and the plate was top sealed. The plate wells were then counted on a TopCount (Packard).
Counts per well were measured and IC50s determined by linear regression.

[2] = target: T2, androgen receptor (rat ventral prostate cytosol) (Rattus norvegicus, UniProt P15207); assay: Androgen Receptor Binding Using Rat Ventral Prostate Cytosol; conditions: for inhibition at 1 µM / % Inhibition, Androgen Receptor Binding (Rat Cytosol): Concentration 1000 nM; for inhibition at 1 µM: read-out: % Inhibition, Androgen Receptor Binding (Rat Cytosol); for IC50: read-out: IC50 (nM), Androgen Receptor Binding (Rat Cytosol)
T2 construct: from tissue; host or cells: ventral prostate cytosol of castrated male Sprague Dawley or Wistar rats
T2 sequence (P15207 1-902): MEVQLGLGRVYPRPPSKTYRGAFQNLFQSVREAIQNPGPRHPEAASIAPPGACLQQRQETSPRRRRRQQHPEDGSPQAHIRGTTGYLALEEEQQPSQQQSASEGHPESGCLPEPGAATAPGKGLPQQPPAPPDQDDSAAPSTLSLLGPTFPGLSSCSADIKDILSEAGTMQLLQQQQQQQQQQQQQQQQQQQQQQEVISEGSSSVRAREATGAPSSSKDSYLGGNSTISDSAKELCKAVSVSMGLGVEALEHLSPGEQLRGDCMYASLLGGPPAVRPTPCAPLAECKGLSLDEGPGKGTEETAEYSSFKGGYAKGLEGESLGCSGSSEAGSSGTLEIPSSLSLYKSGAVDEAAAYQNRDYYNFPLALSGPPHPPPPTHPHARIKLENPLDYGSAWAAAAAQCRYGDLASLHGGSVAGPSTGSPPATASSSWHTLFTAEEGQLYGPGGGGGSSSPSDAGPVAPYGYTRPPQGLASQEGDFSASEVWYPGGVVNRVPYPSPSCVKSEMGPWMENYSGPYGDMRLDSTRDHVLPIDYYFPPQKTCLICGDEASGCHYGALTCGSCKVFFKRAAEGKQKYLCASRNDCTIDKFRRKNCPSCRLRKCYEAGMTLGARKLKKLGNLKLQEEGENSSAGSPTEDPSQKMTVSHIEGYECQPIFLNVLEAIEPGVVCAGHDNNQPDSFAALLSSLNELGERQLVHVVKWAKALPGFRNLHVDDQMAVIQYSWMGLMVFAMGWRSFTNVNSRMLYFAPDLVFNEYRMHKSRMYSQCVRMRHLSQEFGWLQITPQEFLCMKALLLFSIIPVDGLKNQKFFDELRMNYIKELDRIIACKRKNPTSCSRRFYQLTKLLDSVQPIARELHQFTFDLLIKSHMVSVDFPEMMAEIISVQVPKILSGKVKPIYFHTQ
How it was run: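 Cytosol from castrated rat ventral prostate was incubated overnight at 4°C with 0.5 nM [3H] tracer and compound in TED buffer (10 mM Tris-HCl pH 7.4, molybdate, EDTA, DTT, glycerol).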

[3] = test system: testosterone-enhanced ventral prostate and seminal vesicle weights; assay: Ventral Prostate and Seminal Vesicle Weight in vivo Assay; parameters: species or system rat; conditions: immature castrated male Sprague Dawley rats, once daily for five days, usually orally 40 mg/kg, with testosterone propionate 2 mg/kg s.c. Further: key: 'active' if the non weight adjusted prostate weight was ≦40 mg or the % Inhibition prostate weight, body weight adjusted was ≧40% @ 2 mg/day dosage; ID50's, if determined, of ≦15 mg/day also indicated an 'active' compound; listed herein as 'inactive' as they did not meet the specified criteria defined above.
How it was run: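 Immature castrated male Sprague Dawley rats (~50 g) were dosed once daily for five days with compound, usually orally at 40 mg/kg in cyclodextrin or methylcellulose vehicle. Testosterone propionate was co-dosed subcutaneously at 2 mg/kg. On day six, ventral prostate and seminal vesicle wet weights were measured; activity was judged on prostate weight or body-weight-adjusted % inhibition.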

SMILES | IC50 [1] | inhibition at 1 µM [2] | % Inhibition, Androgen Receptor Binding (Rat Cytosol) [2] | IC50 [2] | active / inactive: inhibition of testosterone-enhanced prostate weight [3]
CC(O)(CSC1CCCCC1)c1cc2nc(C(F)(F)F)ccc2[nH]1 (racemic) [Compound 1] | 14000 nM | 22% | – | – | –
CC(O)(CSc1ccccc1)c1cc2nc(C(F)(F)F)ccc2[nH]1 (racemic) [Compound 2] | 53000 nM | 2.5% | – | – | –
CC(O)(CSc1ccc(Cl)cc1)c1cc2nc(C(F)(F)F)ccc2[nH]1 (racemic) [Compound 3] | 26000 nM | 6.6% | – | – | –
CC(O)(CSc1ccc(F)cc1)c1cc2nc(C(F)(F)F)ccc2[nH]1 (racemic) [Compound 5] | 39000 nM | 5.5% | – | – | –
CC(O)(CSc1ccc(Cl)cc1)c1cc2cc([N+](=O)[O-])c(C(F)(F)F)cc2o1 (racemic) [Compound 8] | 2650 nM | -2% | – | – | –
CC(O)(COC(=O)c1ccc(Cl)cc1)c1cc2cc(Cl)c(C(F)(F)F)cc2[nH]1 (racemic) [Compound 62] | 325 nM | – | 69% | – | –
CC(CO)(Sc1ccc(Cl)cc1)c1cc2cc(Cl)c(C(F)(F)F)cc2[nH]1 (racemic) [Compound 253] | 335 nM | 33.5% | – | – | –
CC(O)(Sc1ccc(Cl)c(Cl)c1)c1cc2cc([N+](=O)[O-])c(C(F)(F)F)cc2[nH]1 (racemic) [Compound 254] | 1020 nM and 920 nM | – | 41% | 670 nM | –
CC(O)(Sc1ccccc1)c1cc2cc([N+](=O)[O-])c(C(F)(F)F)cc2[nH]1 (racemic) [Compound 258] | 2450 nM | – | 35.4% | – | –
CC(O)(Sc1ccc(Cl)cc1)c1cc2cc(C#N)c(C(F)(F)F)cc2[nH]1 (racemic) [Compound 261] | 1460 nM | – | 14.05% | – | –
CC(O)(c1cc2cc(C#N)c(C(F)(F)F)cc2[nH]1)S(=O)(=O)c1ccc(Cl)cc1 (racemic) [Compound 262] | > 10000 nM | – | −8.4% | – | –
CC(O)(CCl)c1cc2nc(C(F)(F)F)ccc2n1S(C)(=O)=O (centres unmarked) [Compound 4] | 7600 nM | 10.8% | – | – | –
CS(=O)(=O)n1c(C2(O)CCN(C(=O)OCc3ccccc3)CC2)cc2cc(Cl)c(C(F)(F)F)cc21 [Compound 19] | > 100000 nM | – | −55% | – | –
O=C(OCc1ccccc1)N1CCC(O)(c2cc3cc(Cl)c(C(F)(F)F)cc3[nH]2)CC1 [Compound 20] | 23500 nM | -28.5% | – | – | –
CS(=O)(=O)n1c(C2(O)CCN(Cc3ccccc3)CC2)cc2cc(Cl)c(C(F)(F)F)cc21 [Compound 21] | > 10200 nM | – | −41.5% | – | –
OC1(c2cc3cc(Cl)c(C(F)(F)F)cc3[nH]2)CCN(Cc2ccccc2)CC1 [Compound 22] | > 9600 nM | – | – | > 7700 nM | –
CS(=O)(=O)n1c(C2(O)CCNCC2)cc2cc(Cl)c(C(F)(F)F)cc21 [Compound 23] | 54000 nM | – | −1.5% | 6000 nM | –
O=C(c1ccc(Cl)cc1)N1CCC(O)(c2cc3cc(Cl)c(C(F)(F)F)cc3[nH]2)CC1 [Compound 25] | 8800 nM | – | −83.5% | – | –
CC(O)(COC(=O)c1c(Cl)cccc1Cl)c1cc2cc([N+](=O)[O-])c(C(F)(F)F)cc2[nH]1 (centres unmarked) [Compound 52] | 150 nM | 94.5% | – | 79 nM | –
CC(O)(COC(=O)c1ccc(Cl)cc1)c1cc2cc(Cl)ccc2[nH]1 (centres unmarked) [Compound 53] | 1970 nM | 9.75% | – | – | –
CC(O)(CSc1ccc(Cl)cc1)c1cc2ccccc2[nH]1 (centres unmarked) [Compound 89] | > 9600 nM | – | – | – | –
CC(O)(CSc1ccc([N+](=O)[O-])cc1)c1cc2cc([N+](=O)[O-])c(C(F)(F)F)cc2[nH]1 (centres unmarked) [Compound 103] | 1650 nM | – | – | – | –
CC(O)(C[S+]([O-])c1ccc(F)cc1)c1cc2cc(Cl)c(C(F)(F)F)cc2[nH]1 (centres unmarked) [Compound 113] | 5100 nM | – | – | – | inactive
